Test results published in patent publication US11180760B2, “Identification of molecular pathways and methods of use thereof for treating retinal neurodegeneration and other neurodegenerative disorders” (THE JOHNS HOPKINS UNIVERSITY, priority 2012, dated 2021).

Key:
RGCs = RGCs transfected with MAP3K12/MAP3K13 siRNA then plated in sunitinib or VX680, survival at 72 hours; type: cell-based, mice; details: RGCs transfected with 10 nM siRNA against MAP3K12 and MAP3K13 alone or in combination, 0, 12, 37, 111, 333, 1000 nM drug (FIG. 3F)
Protocol: RGCs were transfected with 10 nM siRNA against MAP3K12 and MAP3K13 alone or in combination and then plated in 0, 12, 37, 111, 333, and 1000 nM sunitinib (FIG. 3F on left) or VX680 (FIG. 3F on right). Survival at 72 hours is shown.

primary RGCs = test: Primary RGC survival in neurotrophin-depleted media with kinase inhibitors (calcein AM)
Protocol: To determine the neuroprotective effects of the broad-spectrum kinase inhibitors, sunitinib and VX680, primary RGCs were plated in neurotrophin-depleted media and stained with calcein AM at 72 hours in the absence (vehicle) or presence of 1 μM sunitinib (FIG. 1, Panel A).
Retinas were isolated from postnatal 0-5-d mice and dissociated with papain. Microglia were immunodepleted with anti-CD11b conjugated Dynabeads (Life Technologies). The suspension of retinal cells was immunopanned on plates preconjugated with anti-Thy1.2 antibody (Serotec, MCA028) and goat antimouse IgM (Jackson Immunoresearch) at room temperature (RT). After washing, retinal ganglion cellS (RGCs) were released from the plate by a cell lifter, counted, and seeded at a density of 10,000 per well in 96-well plates in the media composed of Neurobasal (Life Technologies), B27, N2 supplement, Lglutamine, and penicillin/streptomycin. After a 72-h culture at 37° C., RGCs were stained with calceinAM (acetomethoxy derivate of calcein), ethidium homodimer, and Hoechst 33342. Images were taken from portions of each well with a Cellomics ArrayScan VTI HCS Reader (Thermo Fisher), and cell survival was quantified using the Cellomics Neuronal Profiling bioapplication. As indicated, RGC viability was alternatively measured by Cell-Titer-Glo (Promega) luminescence.

SMILES: Cc1cc(Nc2cc(N3CCN(C)CC3)nc(Sc3ccc(NC(=O)C4CC4)cc3)n2)n[nH]1 [VX680]
- cell viability, survival at 72 hours (RGCs): higher cell viability
- survival of primary RGCs at higher doses (primary RGCs; at higher doses (FIG. 1B)): greater number of viable cells
- survival of primary RGCs in response to increasing doses (primary RGCs; increasing doses (FIG. 1B)): neuroprotective
